Assay results reported in patent US20230110824A1, “FLUORESCENT PROBES FOR DETECTION OF CALCIFICATIONS” (TECHNISCHE UNIVERSITÄT BERLIN, priority 2020, published 2023).
“Also recorded” adds a separate entry of the source. One block for each molecule: values may come before it.

Assays:
[1] = Staining of mouse rib sections with the dyes, epifluorescence microscopy; format: binding, mouse (C57BL/6); conditions: for dependence of fluorescence intensity of rib staining on incubation time: 10 to 120 mins; for dependence of fluorescence intensity of rib staining on dye concentration: 1, 0.1 and 0.01 mg/mL in HEPES; for HAP-associated staining / binding to HAP in rib sections: 1 mg/mL
Procedure: Mouse ribs (C57BL/6) were fixed in 4% paraformaldehyde (PFA). Ribs were processed for wax embedding through sequential immersion in increasing concentrations of ethanol followed by immersion in xylene/clearene and paraffin wax embedding. Rib sections (6 μm thickness) were dewaxed with xylene and rehydrated with decreasing concentrations of ethanol and distilled water (dH2O). Rib sections were incubated with a variety of either namely((4-(5,5-difluoro-1,3,7,9-tetramethyl-5H-414,514-dipyrrolo[1,2-c:2′,1′-f][1,3,2]diazaborinin-10-yl)phenyl)phosphonic acid) (BODIPY-PPA), 5,10,15,20-tetrakis[p-phenylphosphonicacid] porphyrin (p-H8TPPA) and 5,10,15,20-tetrakis[m-phenylphosphonic acid] porphyrin (m-H8TPPA) dyes. […] Meso-tetra(4-phosphorylphenyl)porphine, porph-tetra-meta-phenyl phosphonate, BODIPY-PPA; and BODIPY-PPA-2Et2 were all incubated for 120 mins when diluted to 1, 0.1 and 0.01 mg/mL in HEPES, and incubated at 1 mg/mL for 120, 60, 30, 20 and 10 mins. Images were obtained for up to two weeks after staining. p-H8TPPA-iPr8 and p-TBr3PPA-iPr2 were only incubated for 120 mins at 1 mg/mL, including an incubation with dimethyl sulfoxide (DMSO). Negative controls were included by incubating ribs with the buffers alone. Following incubation with the respective dyes, slides were washed with their respective buffers (3×5 mins) and counter stained with DAPI, diluted in PBS, for 20 mins. After washing with PBS (3×5 mins), slides were mounted with 70% glycerol, diluted in PBS. Images were acquired on a Leica DM5500 epifluorescent microscope, using a 20× objective. The exposure times used to capture these images were kept the same throughout imaging. Images were processed using the FIJI software.
To further probe their HAP binding properties, we have used laterally sectioned mouse ribs as an example of HAP, which were incubated with p-H8TPPA at concentrations ranging from 0.01 to 1.0 mg/mL in HEPES buffer for varying times at room temperature and imaged by fluorescence microscopy (for details see description of the figures), to assess HAP binding capability.

[2] = Precipitation / solubility of the dye in incubation buffers
Procedure: Mouse ribs were incubated for 120 mins with p-TBr3PPA-iPr2 (5,10,15-tris[p-bromophenyl]-20-[p-phenyl-, bis(1-methylethyl) ester phosphonic acid] porphyrin) diluted to 1 mg/mL in different buffers.
Mouse ribs were incubated for 120 mins with p-H8TPPA-iPr8 phosphonate diester diluted to 1 mg/mL in different buffers.

THP-1 monocytes = test: Cellular uptake / cell labeling of proliferating THP-1 monocytes, fluorescence emission scan; format: cell-based, human; conditions: loading buffer, 60 min, 420 nm excitation
Procedure: In addition to the application on bone sections, the phenylphosphonic acid/esterified porphyrins' propensity for cellular uptake was tested on proliferating human cells (FIG. 15). Aiming to use phenylphosphonic acid functionalized porphyrins in in vivo applications, the negative charge on the deprotonated phosphonate might be a handicap by limiting cell permeability. Optional demasking of phosphonate esters in metabolic surroundings might occur, recreating the metal binding PhPO3^2-. This possibility led us to examine p-H8TPPA and p-H8TPPA-iPr8 suitability for in vivo cellular experiments by testing their permeability on proliferating human THP-1 monocytes.
We have treated THP-1 monocytes with the Phosphorylphenyl-modified porphyrins in loading buffer (10 mM HEPES, pH 7.35, 120 mM NaCl, 5.4 mM KCl, 5 mM glucose, 1.3 mM CaCl2, 1 mM MgCl2, 1 mM NaH2PO4, 0.3% bovine serum albumin) for 60 min. Excess fluorescence dye was removed by multiple washing steps before fluorescence emission scanning using 420 nm excitation (Tecan Infinite M200 reader; Tecan, Germany). […] We hypothesize that the phosphonates, being somewhat amphipathic, were able to penetrate the cell membrane, whereas the more nonpolar esters were not as efficient.

[3] = Absorbance and fluorescence spectra in presence and absence of HAP (Flexstation 3 microplate reader); format: binding
Procedure: The absorbance (A) and fluorescence (B) spectra of 0.01 mg mL^−1p-H8TPPA in the presence (dashed lines) and absence (solid lines) of HAP. The dye was diluted to 0.01 mg mL^−1 in PBS (pH 7.4, green), TBS (pH 7.4, orange), HEPES (pH 7.4, purple) and d H2O with absorbance and fluorescence spectra obtained using the Flexstation 3 microplate reader.
Characterization of Probes: The structure and purity of the probes were characterized by liquid chromatography, infrared, NMR, and/or mass spectrometry. Their optical properties were characterized by absorption and fluorescence spectrophotometry in the presence and absence of authentic hydroxyapatite, whitlockite, and other doped apatites. The dyes were also tested on mouse ribs as an example of hydroxyapatite in tissue.
This is also reflected in the maximal peak of the fluorescence intensity (FIG. 14 B), with a shift from λem 646-648 nm for PBS, TBS and HEPES to λem 675 nm when diluted in dH2O. […] Previously reported bisphosphonate fluorophores had […] aliphatic carbons between the fluorescent core and HAP binding, therefore, such systems merely functioned as fluorescent labels with no change in emission due to HAP binding since they lacked synergistic interaction between the HAP and the fluorescent core. Phosphonic acids that have direct sp^2 bonds to the fluorescent core could extend the conjugation of the fluorescent core to the HAP and thereby could initiate changes in the ground and excited states resulting in quenching or enhancing the fluorescence emission.

[4] = system: intestinal Caco-2 cell line; conditions: at high concentrations; cited from earlier work
[5] = 1 mg/mL in HEPES, 120 mins, imaged up to 14 days / two weeks after staining

Molecule: O=P(O)(O)c1cccc(-c2c3nc(c(-c4cccc(P(=O)(O)O)c4)c4ccc([nH]4)c(-c4cccc(P(=O)(O)O)c4)c4nc(c(-c5cccc(P(=O)(O)O)c5)c5ccc2[nH]5)C=C4)C=C3)c1 [m-H8TPPA, 5,10,15,20-tetrakis[m-phenylphosphonic acid] porphyrin]
- dependence of fluorescence intensity of rib staining on incubation time ([1]; 1 mg/mL in HEPES): no clear difference in fluorescence intensity
- change of fluorescence intensity after staining [1, 5]: no noticeable decrease in fluorescence intensity
- dependence of fluorescence intensity of rib staining on dye concentration ([1]; 120 mins): little to no difference in the fluorescent intensity
- duration of fluorescence of stained ribs ([1]; compared to p-H8TPPA): longer fluorescence period

Molecule: CC(C)OP(=O)(OC(C)C)c1ccc(-c2c3nc(c(-c4ccc(Br)cc4)c4ccc([nH]4)c(-c4ccc(Br)cc4)c4nc(c(-c5ccc(Br)cc5)c5ccc2[nH]5)C=C4)C=C3)cc1 [p-TBr3PPA-iPr2, 5,10,15-tris[p-bromophenyl]-20-[p-phenyl-, bis(1-methylethyl) esterphosphonic acid] porphyrin]
- HAP-associated staining / binding to HAP in rib sections ([1]; 120 mins): lack of HAP-associated staining; also recorded: no binding to HAP occurring
- behaviour of the dye during incubation ([2]; 1 mg/mL in DMSO): precipitation of the dye
- behaviour of the dye during the incubation period ([2]; 1 mg/mL in HEPES, PBS, TBS and dH2O, 120 mins): precipitated

Molecule: ((4-(5,5-difluoro-1,3,7,9-tetramethyl-5H-414,514-dipyrrolo[1,2-c:2′,1′-f][1,3,2]diazaborinin-10-yl)phenyl)phosphonic acid) [BODIPY-PPA]
- dependence of fluorescence intensity of rib staining on incubation time ([1]; 1 mg/mL in HEPES): decrease in fluorescence intensity is observed for decreasing incubation times
- change of fluorescence intensity after staining [1, 5]: only a very slight decrease in fluorescence intensity
- dependence of fluorescence intensity of rib staining on dye concentration ([1]; 120 mins): strong concentration dependency of staining

- solubility in the aqueous [2]: dramatically reduced their solubilities
Molecule: CC(C)OP(=O)(OC(C)C)c1ccc(-c2c3nc(c(-c4ccc(P(=O)(OC(C)C)OC(C)C)cc4)c4ccc([nH]4)c(-c4ccc(P(=O)(OC(C)C)OC(C)C)cc4)c4nc(c(-c5ccc(P(=O)(OC(C)C)OC(C)C)cc5)c5ccc2[nH]5)C=C4)C=C3)cc1 [p-H8TPPA-iPr8]
- HAP-associated staining / binding to HAP in rib sections ([1]; 120 mins): no binding to HAP occurring; also recorded: complete lack of HAP-associated staining
- cell labeling / passage through the cellular membrane (THP-1 monocytes): hindered their passage through the cellular membrane

Molecule: O=P(O)(O)c1ccc(-c2c3nc(c(-c4ccc(P(=O)(O)O)cc4)c4ccc([nH]4)c(-c4ccc(P(=O)(O)O)cc4)c4nc(c(-c5ccc(P(=O)(O)O)cc5)c5ccc2[nH]5)C=C4)C=C3)cc1 [p-H8TPPA, 5,10,15,20-tetrakis[p-phenylphosphonic acid] porphyrin]
- fluorescent signal of stained ribs ([1]; 0.1 mg/mL in HEPES): clear fluorescent signal
- fluorescent signal of stained ribs ([1]; 1 mg/mL diluted in dH2O): no fluorescent signal
- dependence of fluorescence intensity of rib staining on incubation time ([1]; 1 mg/mL in HEPES): clear increase in fluorescence intensity with an increasing incubation time
- difference of fluorescence intensity between buffers ([1]; 1 mg/mL in HEPES, PBS, TBS): no clear difference
- change of fluorescence intensity after staining ([1]; 1 mg/mL in HEPES, day of staining vs 7 days later): noticeable decrease in fluorescence intensity
- fluorescent signal of stained ribs compared to HEPES only negative control ([1]; 1 mg/mL in HEPES, incubated for 10 mins): clear fluorescent signal
- HAP-associated staining / binding to HAP in rib sections ([1]; 120 mins): specific for hydroxyapatite
- dependence of fluorescence intensity of rib staining on dye concentration ([1]; 120 mins): binds to HAP with a concentration dependence
- fluorescent signal after staining ([1]; diluted in PBS, after two weeks): weak fluorescent signal
- fluorescent signal after staining ([1]; diluted in PBS, one week after staining): fluorescent signal above background signal
- fluorescent signal after staining ([1]; diluted in TBS, one week after staining): fluorescent signal above background signal
- fluorescence intensity upon HAP binding [3]: increased
- increase of fluorescence intensity upon HAP binding ([3]; 0.01 mg mL^-1 in HEPES pH 7.4): 2.0 fold
- increase of fluorescence intensity upon HAP binding ([3]; 0.01 mg mL^-1 in PBS pH 7.4): 1.8 fold
- increase of fluorescence intensity upon HAP binding ([3]; 0.01 mg mL^-1 in TBS pH 7.4): 2.0 fold
- increase of fluorescence intensity upon HAP binding ([3]; 0.01 mg mL^-1 in d H2O): 1.6 fold
- maximal peak of the fluorescence intensity (λem) ([3]; PBS, TBS and HEPES): 646-648 nm
- absorbance peak maximum ([3]; PBS, TBS and HEPES (before shift)): 415 nm
- absorbance peak maximum ([3]; diluted in dH2O): 435 nm
- maximal peak of the fluorescence intensity (λem) ([3]; diluted in dH2O): 675 nm
- cell labeling / passage through the cellular membrane (THP-1 monocytes): much more efficient in cell labeling; also recorded: can travel through the cellular membrane
- toxicity for an intestinal cell line [4]: no toxicity
